The text below walks through data of US4061753A, “Treating psoriasis with transient pro-drug forms of xanthine derivatives” (INTERx Research Corporation, priority 1976, dated 1977).

A short description of data set [1]: Partition Coefficient Studies (water solubility, heptane solubility, water/heptane partition).
Data set [2] can be described thus: Stability of the 7-hydroxymethyl derivative in water. The class given is physicochemical.
The conditions of data set [3]: e.g., heptane; cited from earlier work.
The test system of data set [4] is phosphodiesterase. The conditions noted are these: Sutherland and Rall 1958; cited from earlier work.
The mark [5] stands for this setting: heptane, organic solvent or mixture.

Converted amounts (≈) assume the structure as drawn.

As a reminder, the solubility is the concentration that dissolves in the medium under given conditions. With `CN(C)CC(=O)OCn1cnc2c1c(=O)n(C)c(=O)n2C`, in data set [1] (heptane), the “Heptane (solubility)” value is recorded as under 10 mg/500 ml. In addition, in data set [1] (water), the solubility was over 1000 mg/mL.
Consider `CCN(CC)C(=O)CCC(=O)OCn1cnc2c1c(=O)n(C)c(=O)n2C`, for which the solubility worked out at 0.17 mg/mL (≈ 0.465 mM) in data set [1] (setting [5]) and 26.3 mg/mL (≈ 72 mM) in data set [1] (water).
In the case of `Cn1c(=O)c2c(ncn2CO)n(C)c1=O` [7-hydroxymethyl derivative, 7-hydroxymethyl theophylline], the stability in water result in data set [2] is reported as “extremely unstable in water”.
For `CCC(=O)OCn1cnc2c1c(=O)n(C)c(=O)n2C` [C2 H5, 7-Propionyloxymethyl-theophylline], the solubility in data set [1] (setting [5]) was found to be 0.18 mg/mL (≈ 0.676 mM); in data set [1] (water), 3.87 mg/mL (≈ 14.5 mM). Also, in data set [1], the Water/Heptane partition coefficient is 32.0.
Taken in the same sequence, the figures for `CCCC(=O)OCn1cnc2c1c(=O)n(C)c(=O)n2C` [C3 H7, 7-Butanoyloxymethyl-theophylline] were 0.65 mg/mL (≈ 2.32 mM), 3.89 mg/mL (≈ 13.9 mM) and 6.30.
For `CCCCCC(=O)OCn1cnc2c1c(=O)n(C)c(=O)n2C` [C5 H11, 7-Hexanoyloxymethyl-theophylline], the solubility in data set [1] (setting [5]) was determined as 2.26 mg/mL (≈ 7.33 mM); in data set [1] (water), 0.11 mg/mL (≈ 0.357 mM). The Water/Heptane partition coefficient in data set [1] turned out to be 0.42.
Regarding `CCCCCCCC(=O)OCn1cnc2c1c(=O)n(C)c(=O)n2C` [C7 H15, 7-Octanoyloxymethyl-theophylline], the results for the solubility in data set [1] (setting [5]) and in data set [1] (water) were 0.52 mg/mL (≈ 1.55 mM) and 0.12 mg/mL (≈ 0.357 mM), respectively. In data set [1], this molecule displayed a Water/Heptane partition coefficient of 0.06.
`Cn1c(=O)c2c(ncn2COC(=O)C(C)(C)C)n(C)c1=O` [C(CH3)3, 7-Pivalyloxymethyl-theophylline]: the figures for the solubility in data set [1] (setting [5]) and in data set [1] (water) were 1.55 mg/mL (≈ 5.27 mM) and 2.01 mg/mL (≈ 6.83 mM), respectively. Further, the Water/Heptane partition coefficient in data set [1] came to 1.11.
For `Cn1c(=O)c2[nH]cnc2n(C)c1=O` [theophylline], in data set [3], the “solubility in lipid-like solvents” value is given as “almost insoluble”. Moreover, the “effect on degradation of cyclic AMP by inhibiting phosphodiesterase activity” value in data set [4] is on record as “decrease the degradation of cyclic AMP by inhibiting phosphodiesterase activity”.
